The values that follow come from patent US7723326B2, “Heterocyclic amide derivatives as RXR agonists for the treatment of dyslipidemia, hypercholesterolemia and diabetes” (Janssen Pharmaceutica N.V., priority 2005, dated 2010).

The test system of test [1] is ABCA1 mRNA in THP-1 cells. As to the kind of experiment: ABCA1 bDNA assay (ABCA1 mRNA induction). The class given is cell-based. To be noted: Homo sapiens; for EC50: ABCA1 mRNA induction, usually 18-24 hrs; for Emax at 3 µM: relative to MX-6054, read-out: ABCA1 % max MX-6054. Here is the method: THP-1 cells, a human monocytic cell line, were obtained from ATCC and maintained in RPMI (Gibco) supplemented with 10% fetal bovine serum (Gibco), 2mM L-glutamine and 1% antibiotic-antimycotic in 5% CO2 at 37° C. For ABCA1 mRNA induction assays, the cells were pelleted and resuspended in RPMI supplemented with 0.5% charcoal treated serum (Hyclone), 2 mM glutamine and 1% antibiotic-antimycotic. The cells were plated at a density of 40,000 cells/90 μl and incubated as above for at least 4 hours before the initiation of treatments. Compounds were prepared as 10 mM stocks in DMSO. For treatments, the compounds were diluted in medium and 10 μl of 10× stocks were added to the cells at a final concentration 0.1% DMSO. The cells were incubated for the desired amount of time (usually 18-24 hrs) and then lyzed with 50 μl of Quantigene HV bDNA lysis buffer which also contained the ABCA1 bDNA probes (probe sequences shown below): […]

Test [2] addresses T1, RXR ligand binding domain (accession number X52773) fused with the DNA binding domain of yeast GAL4 (Homo sapiens, UniProt P19793).
T1 construct: expressed in transfected cells; host or cells: HEK293
T1 sequence (P19793 227-458 limits assumed): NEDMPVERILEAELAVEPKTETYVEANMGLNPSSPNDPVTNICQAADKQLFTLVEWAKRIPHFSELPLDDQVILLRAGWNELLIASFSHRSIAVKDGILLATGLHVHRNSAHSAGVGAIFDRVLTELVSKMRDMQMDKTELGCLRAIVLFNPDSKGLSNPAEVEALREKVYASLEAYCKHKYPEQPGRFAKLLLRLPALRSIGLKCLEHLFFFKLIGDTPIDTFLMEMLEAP
As to the kind of experiment: RXR co-transfection assay (GAL4-LBD luciferase reporter in HEK293 cells). The test is classed as cell-based. The settings on record: 16-18 hours. Here is the method:
The nucleic acid sequence from 676-1464bp (accession number X52773) encoding the ligand binding domains was subcloned into the pM vector (BD Biosciences Clontech, Palo Alto, Calif.) and were fused with the DNA binding domain of yeast GAL4. HEK293 cells were cultured in DMEM/F12 medium supplemented with 10% FBS and 1% 1-glutamine (growth medium). Cells were seeded at a density of 5-10×10^6 cells in 50 ml of growth medium and left overnight, The medium was removed and the cells were washed with 15 ml of OptiMEM serum free medium (Invitrogen Corp). The cells were transfected using OptiMEM serum free medium and DMRIE transfection reagent (Invitrogen Corp). Approximately 10-30 ng of DNA for the different receptors and 5-10 ng of the luciferase reporter (1:1 ratio for RAR and 4:1 ratio for RXR of receptor DNA:reporter DNA) were gently mixed with 51 μl of DMRIE reagent in a total volume of 17 ml of OptiMEM medium. Eighteen hours after transfection, the cells were washed once with growth medium and then incubated for 6 hrs in 30 ml of growth medium. The cells were then trypsinized, and reseeded at a density of 50,000 per well in 96 well plates and left overnight. The medium was replaced with 90 μl of medium containing DMEM/F12 supplemented with 0.5% charcoal-treated FBS (HyClone; Logan, Utah) and 1% glutamine. Compounds or vehicle were added in 10 μl of 10× concentration of compound or vehicle (0.1% dimethyl sulfoxide). The cells were treated for 16-18 hours, lysed and assayed for luciferase activity using the Steady Gio luciferase assay kit (Promega, Madison, Wis.).
On the technique in general: In a reporter assay the amount or activity of a reporter protein is the signal.

What is called EC50 is the concentration giving half of the maximal effect.

“And” between values parts separate entries of the source, which are not always exact repeats. Equal values may be shown once.

The compound `CCN1C(=O)OC(C(C)C)c2cc(C)c(-c3cc([C@@H]4C[C@H]4C(=O)O)ccc3OC(F)(F)F)cc21` (stereo partly drawn) [Compound 20, 2-[3-(1-Ethyl-4-isopropyl-6-methyl-2-oxo-1,4-dihydro-2H-benzo[d][1,3]oxazin-7-yl)-4-trifluoromethoxy-phenyl]-cyclopropanecarboxylic acid] registered an EC50 in test [1] of more than 2000 nM.
Consider `CCN1C(=O)C(C)(C)Oc2cc(C)c(-c3cc([C@@H]4C[C@H]4C(=O)O)ccc3OC(F)(F)F)cc21` (racemic) [Compound 22, 2-[3-(4-Ethyl-2,2,7-trimethyl-3-oxo-3,4-dihydro-2H-benzo[1,4]oxazin-6-yl)-4-trifluoromethoxy-phenyl]-cyclopropanecarboxylic acid], for which the Emax at 3 µM in test [1] amounted to 28.6%. For the same compound, the figures for the half-maximal effective concentration (EC50) in test [1] and in test [2] were more than 2000 nM and 385 nM, respectively.
As to `CCN1C(=O)C(C)(C)Oc2cc(C)c(-c3cc(/C=C(\C)C(=O)O)ccc3OC(F)(F)F)cc21` [Compound 10, 3-[3-(4-Ethyl-2,2,7-trimethyl-3-oxo-3,4-dihydro-2H-benzo[1,4]oxazin-6-yl)-4-trifluoromethoxy-phenyl]-2-methyl-acrylic acid], the Emax at 3 µM in test [1] is 37.2%. In addition, the EC50 was more than 2000 nM in test [1] and 1400 nM in test [2].
Consider `CCC1Oc2cc(C)c(-c3cc(/C=C/C(=O)O)ccc3OC(F)(F)F)cc2N(CC)C1=O` (stereo not drawn) [Compound 8, 3-[3-(2,4-Diethyl-7-methyl-3-oxo-3,4-dihydro-2H-benzo[1,4]oxazin-6-yl)-4-trifluoromethoxy-phenyl]-acrylic acid], for which the EC50 in test [1] was more than 2000 nM.
As to `Cc1cc2c(cc1-c1cc(CCC(=O)O)ccc1OC(F)(F)F)N(C(C)C)C(=O)C(C)(C)O2` [Compound 13, 3-[3-(4-Isopropyl-2,2,7-trimethyl-3-oxo-3,4-dihydro-2H-benzo[1,4]oxazin-6-yl)-4-trifluoromethoxy-phenyl]-propionic acid], the EC50 in test [1] was more than 2000 nM; in test [2], 347 nM.
Turning to `Cc1cc2c(cc1-c1cc(/C=C/C(=O)O)ccc1OC(F)(F)F)N(C(C)C)C(=O)C(C)(C)O2` [Compound 4, 3-[3-(4-Isopropyl-2,2,7-trimethyl-3-oxo-3,4-dihydro-2H-benzo[1,4]oxazin-6-yl)-4-trifluoromethoxy-phenyl]-acrylic acid], the Emax at 3 µM in test [1] stood at 79%. For the same compound, the half-maximal effective concentration (EC50) in test [1] worked out at 430 nM; in test [2], 98.8 nM.
The compound `CCN1C(=O)CN(C(C)C)c2cc(C)c(-c3cc(/C=C/C(=O)O)ccc3OC(F)(F)F)cc21` [Compound 25, 3-[3-(4-Ethyl-1-isopropyl-7-methyl-3-oxo-1,2,3,4-tetrahydro-quinoxalin-6-yl)-4-trifluoromethoxy-phenyl]-acrylic acid] had an EC50 in test [1] of more than 2000 nM.
Same read-out and setting: in the case of `CCN1C(=O)OCc2cc(C)c(-c3cc([C@@H]4C[C@H]4C(=O)O)ccc3OC(F)(F)F)cc21` (racemic) [Compound 21, 2-[3-(1-Ethyl-6-methyl-2-oxo-1,4-dihydro-2H-benzo[d][1,3]oxazin-7-yl)-4-trifluoromethoxy-phenyl]-cyclopropanecarboxylic acid] it was more than 2000 nM.
As to `Cc1cc2c(cc1-c1cc(/C=C/C(=O)O)ccc1OC(F)(F)F)N(C)C(=O)C(C)(C)O2` [Compound 3, 3-[3-(2,2,4,7-Tetramethyl-3-oxo-3,4-dihydro-2H-benzo[1,4]oxazin-6-yl)-4-trifluoromethoxy-phenyl]-acrylic acid], the Emax at 3 µM in test [1] stood at 8.4%. In addition, the EC50 in test [1] and in test [2] was more than 2000 nM throughout.
Take `Cc1cc2c(cc1-c1cc(C3CC3C(=O)O)ccc1OC(F)(F)F)N(C(C)C)C(=O)C(C)(C)O2` (racemic) [Compound 23, 2-[3-(4-Isopropyl-2,2,7-trimethyl-3-oxo-3,4-dihydro-2H-benzo[1,4]oxazin-6-yl)-4-trifluoromethoxy-phenyl]-cyclopropanecarboxylic acid]: the Emax at 3 µM in test [1] was found to be 64.1%. Moreover, the values for the EC50 in test [1] and in test [2] were more than 2000 nM and 719 nM, respectively.
In the case of `CCN1C(=O)OC(C(C)C)c2cc(C)c(-c3cc(/C=C/C(=O)O)ccc3OC(F)(F)F)cc21` (stereo not drawn) [Compound 16, 3-[3-(1-Ethyl-4-isopropyl-6-methyl-2-oxo-1,4-dihydro-2H-benzo[d][1,3]oxazin-7-yl)-4-trifluoromethoxy-phenyl]-acrylic acid], the EC50 in test [1] is more than 2000 nM.
Regarding `CCN1C(=O)OC(C(C)C)c2cc(C)c(-c3cc(CCC(=O)O)ccc3OC(F)(F)F)cc21` (stereo not drawn) [Compound 18, 3-[3-(1-Ethyl-4-isopropyl-6-methyl-2-oxo-1,4-dihydro-2H-benzo[d][1,3]oxazin-7-yl)-4-trifluoromethoxy-phenyl]-propionic acid], the Emax at 3 µM in test [1] is 4.5%. Also, the EC50 in test [1] and in test [2] was more than 2000 nM each time.
The compound `CCN1C(=O)C(C(C)C)Oc2cc(C)c(-c3cc(/C=C/C(=O)O)ccc3OC(F)(F)F)cc21` (stereo not drawn) [Compound 9, 3-[3-(4-Ethyl-2-isopropyl-7-methyl-3-oxo-3,4-dihydro-2H-benzo[1,4]oxazin-6-yl)-4-trifluoromethoxy-phenyl]-acrylic acid] gave an EC50 in test [1] of more than 2000 nM.
In test [1], `CCN1C(=O)OC(C)(C)c2cc(C)c(-c3cc([C@@H]4C[C@H]4C(=O)O)ccc3OC(F)(F)F)cc21` [Compound 19, 2-[3-(1-Ethyl-4,4,6-trimethyl-2-oxo-1,4-dihydro-2H-benzo[d][1,3]oxazin-7-yl)-4-trifluoromethoxy-phenyl]-cyclopropanecarboxylic acid] yielded an EC50 of more than 2000 nM.
With `CCN1C(=O)C(C)(C)Oc2cc(C)c(-c3cc(/C=C/C(=O)O)ccc3OC(F)(F)F)cc21` [Compound 1, 3-[3-(4-Ethyl-2,2,7-trimethyl-3-oxo-3,4-dihydro-2H-benzo[1,4]oxazin-6-yl)-4-trifluoromethoxy-phenyl]-acrylic acid], the EC50 in test [1] was 39.7 nM; in test [2] it was 151 nM and 180 nM and 189 nM.
Consider `CCn1c(=O)c(=O)n(CC)c2cc(-c3cc(/C=C/C(=O)O)ccc3OC(F)(F)F)c(C)cc21` [Compound 24, 3-[3-(1,4-Diethyl-7-methyl-2,3-dioxo-1,2,3,4-tetrahydro-quinoxalin-6-yl)-4-trifluoromethoxy-phenyl]-acrylic acid], for which, in test [1], the EC50 is more than 2000 nM.
For the compound `CCN1CC(C)(C)Oc2cc(C)c(-c3cc(/C=C/C(=O)O)ccc3OC(F)(F)F)cc21` [Compound 27, 3-[3-(4-Ethyl-2,2,7-trimethyl-3,4-dihydro-2H-benzo[1,4]oxazin-6-yl)-4-trifluoromethoxy-phenyl]-acrylic acid], in test [1], the EC50 is more than 2000 nM.
On the same count and under the same terms, as for `CCN1C(=O)C(C)Oc2cc(C)c(-c3cc(/C=C/C(=O)O)ccc3OC(F)(F)F)cc21` (stereo not drawn) [Compound 7, 3-[3-(4-Ethyl-2,7-dimethyl-3-oxo-3,4-dihydro-2H-benzo[1,4]oxazin-6-yl)-4-trifluoromethoxy-phenyl]-acrylic acid], the figure is more than 2000 nM.
In test [1], `CCN1C(=O)COc2cc(C)c(-c3cc(/C=C/C(=O)O)ccc3OC(F)(F)F)cc21` [Compound 6, 3-[3-(4-Ethyl-7-methyl-3-oxo-3,4-dihydro-2H-benzo[1,4]oxazin-6-yl)-4-trifluoromethoxy-phenyl]-acrylic acid] yielded an EC50 of more than 2000 nM.
The same measure, in the same setting: in the case of `CCN1C(=O)OC(C)(C)c2cc(C)c(-c3cc(/C=C/C(=O)O)ccc3OC(F)(F)F)cc21` [Compound 14, 3-[3-(1-Ethyl-4,4,6-trimethyl-2-oxo-1,4-dihydro-2H-benzo[d][1,3]oxazin-7-yl)-4-trifluoromethoxy-phenyl]-acrylic acid] it was more than 2000 nM.
With `CCN1C(=O)OC(C)(C)c2cc(C)c(-c3cc(CCC(=O)O)ccc3OC(F)(F)F)cc21` [Compound 17, 3-[3-(1-Ethyl-4,4,6-trimethyl-2-oxo-1,4-dihydro-2H-benzo[d][1,3]oxazin-7-yl)-4-trifluoromethoxy-phenyl]-propionic acid], the EC50 in test [1] is more than 2000 nM.
In test [1], `CCN1C(=O)OCc2cc(C)c(-c3cc(/C=C/C(=O)O)ccc3OC(F)(F)F)cc21` [Compound 15, 3-[3-(1-Ethyl-6-methyl-2-oxo-1,4-dihydro-2H-benzo[d][1,3]oxazin-7-yl)-4-trifluoromethoxy-phenyl]-acrylic acid] displayed an EC50 of more than 2000 nM.
